Columns and labels:
GABAA receptor α4β3δ = molecular target: T1, GABAA receptor α4β3δ (Homo sapiens, UniProt P28472+P48169); experiment: Patch clamp electrophysiology, manual patch in CHO cells; assay type: cell-based; settings: 10 μM test article, GABA EC20 2 μM, read-out: GABA (α4β3δ) Manual patch in CHO, % efficacy at 10 μM
T1 construct: expressed in transfected cells; host or cells: CHO cells (transient, lipofection)
Procedure: (§1) Patch Clamp Electrophysiology of Recombinant α1β2γ2 and α4β3δ GABAA Receptors
(§2) Cellular electrophysiology is used to measure the pharmacological properties of our GABAA receptor modulators in heterologous cell systems. Each compound is tested for its ability to affect GABA mediated currents at a submaximal agonist dose (GABA EC20=2 μM). LTK cells are stably transfected with the α1β2γ2 subunits of the GABA receptor and CHO cells are transiently transfected with the α4β3δ subunits via the Lipofecatamine method. Cells were passaged at a confluence of about 50-80% and then seeded onto 35 mm sterile culture dishes containing 2 ml culture complete medium without antibiotics or antimycotics. Confluent clusters of cells are electrically coupled (Pritchett et al., Science, 1988, 242, 1306-1308.). Because responses in distant cells are not adequately voltage clamped and because of uncertainties about the extent of coupling (Verdoorn et al., Neuron 1990, 4, 919-928.), cells were cultivated at a density that enables the recording of single cells (without visible connections to other cells).
(§3) Whole cell currents were measured with HEKA EPC-10 amplifiers using PatchMaster software or by using the high throughput QPatch platform (Sophion). Bath solution for all experiments contained (in mM): NaCl 137 mM, KCl 4 mM, CaCl2 1.8 mM, MgCl2 1 mM, HEPES 10 mM, D-Glucose 10 mM, pH (NaOH) 7.4. In some cases 0.005% cremophor was also added. Intracellular (pipette) solution contained: KCl 130 mM, MgCl2 1 mM, Mg-ATP 5 mM, HEPES 10 mM, EGTA 5 mM, pH 7.2. During experiments, cells and solutions were maintained at room temperature (19° C.-30° C.). For manual patch clamp recordings, cell culture dishes were placed on the dish holder of the microscope and continuously perfused (1 ml/min) with bath solution. After formation of a Gigaohm seal between the patch electrodes and the cell (pipette resistance range: 2.5 MΩ-6.0 MΩ; seal resistance range: >1 GΩ) the cell membrane across the pipette tip was ruptured to assure electrical access to the cell interior (whole-cell patch-configuration). For experiments using the QPatch system, cells were transferred as suspension to the QPatch system in the bath solution and automated whole cell recordings were performed.
(§4) Cells were voltage clamped at a holding potential of −80 mV. For the analysis of test articles, GABA receptors were stimulated by 2 μM GABA after sequential pre-incubation of increasing concentrations of the test article. Pre-incubation duration was 30 s and the duration of the GABA stimulus was 2 s. Test articles were dissolved in DMSO to form stock solutions (10 mM). Test articles were diluted to 0.01, 0.1, 1, and 10 μM in bath solution. All concentrations of test articles were tested on each cell. The relative percentage potentiation was defined as the peak amplitude in response to GABA EC20 in the presence of the test article divided by the peak amplitude in response to GABA EC20 alone, multiplied by 100.

PTZ-treated mice = experiment: Acute PTZ (pentylenetetrazol-induced seizure) assay in mice; assay type: in vivo, mouse; settings: PO, latency to tonic seizures
Procedure: The anticonvulsant effect of test compounds were assessed in the pentylenetetazol-induced seizure assay in mice similar to methods described in Giardina & Gasior (2009) Curr Protoc Pharmacol., Chapter 5. Male CD-1 mice were housed in groups of five under controlled conditions (temperature of 22±2° C. and 12:12 light-dark cycle, lights on at 8:00 am) and water and food were available ad libitum. The mice were housed for 1 week prior to behavioral testing, at which time they weighed 25-35 g. Pentylenetetrazol (PTZ, Sigma) was dissolved in sterile 0.9% saline at a concentration of 12 mg/mL concentration for subcutaneous administration. Test compounds were formulated and administered via oral gavage or intraperitoneal injection at a predetermined time-point (typically 30 or 60 minutes) prior to PTZ injection. All solutions were made fresh and were given in a volume of 10 ml/kg body weight.
Mice were acclimated to the test room for at least 30 min before compound administration. Mice were randomized into at least four test groups (vehicle and at least three doses of the test compound) with 10 mice per group. […] Following the drug pretreatment time the mice were injected s.c. with PTZ (120 mg/kg). Immediately following the PTZ injection, mice were individually placed into observation chambers (25×15×15 cm) and a three-channel timer was started. Each mouse was continuously observed for 30 min and the following behaviors were recorded by observers blinded to the treatments: 1) latency to clonic convulsions that persist for 3 sec and followed by an absence of righting reflex 2) latency to tonic convulsions, characterized by the rigid extension of all four limbs that exceeded a 90 degree angle with the body 3) latency to death 4) number of clonic and tonic convulsions. Data are presented as mean±S.E.M and one-way analysis of variance with Dunnett's or Bonferroni's post-hoc test was used to detect significant differences in latency and number between the vehicle and dose group. p values<0.05 were regarded as statistically significant.

GABAA receptor α1β2γ2 = molecular target: T2, GABAA receptor α1β2γ2 (Homo sapiens, UniProt P14867+P47870); experiment: Patch clamp electrophysiology, Qpatch in Ltk cells; assay type: cell-based; settings: 10 μM test article, GABA EC20 2 μM, read-out: GABA (α1β2γ2) Qpatch in Ltk, % efficacy at 10 μM
T2 construct: expressed in transfected cells
Procedure: as §1, §2, §3, §4

male Sprague Dawley rats = experiment: Loss of righting reflex in rats; assay type: in vivo; settings: Rat IV, 5 mpk
Procedure: Loss of Righting Reflex in Rats
The plasma pharmacokinetics and a qualitative assessment of sedation were obtained in male
Sprague Dawley rats according to the following procedure. Rats were dosed by intravenous bolus dose (60 seconds) via the foot dorsal vein at doses ranging from 5 to 15 mg/kg in an appropriate vehicle. In order to assess sedation, rats were gently restrained by hand to a lateral position for dose administration. […] If the animal was unable to return to an upright position, the time was recorded as the onset of loss of righting reflex (LRR). […] Sluggish or incomplete righting twice consecutively within a 30 second interval qualifies as a loss of righting reflex. After onset of LRR, animals were assessed every 5 minutes in the same manner. Recovery of righting reflex is defined as the ability of a rat to right itself completely within 20 seconds of being placed in dorsal recumbency. The duration of LRR is defined as the time interval between LRR and the return of righting reflex.

GABAA-R = molecular target: T3, GABAA-R (Homo sapiens, UniProt P14867+P47870); experiment: Electrophysiological evaluation at GABAA-R (Table 2); assay type: cell-based; settings: GABAA-R electrophysiology; for EC50: read-out: EC50
T3 sequence (P14867 1-456): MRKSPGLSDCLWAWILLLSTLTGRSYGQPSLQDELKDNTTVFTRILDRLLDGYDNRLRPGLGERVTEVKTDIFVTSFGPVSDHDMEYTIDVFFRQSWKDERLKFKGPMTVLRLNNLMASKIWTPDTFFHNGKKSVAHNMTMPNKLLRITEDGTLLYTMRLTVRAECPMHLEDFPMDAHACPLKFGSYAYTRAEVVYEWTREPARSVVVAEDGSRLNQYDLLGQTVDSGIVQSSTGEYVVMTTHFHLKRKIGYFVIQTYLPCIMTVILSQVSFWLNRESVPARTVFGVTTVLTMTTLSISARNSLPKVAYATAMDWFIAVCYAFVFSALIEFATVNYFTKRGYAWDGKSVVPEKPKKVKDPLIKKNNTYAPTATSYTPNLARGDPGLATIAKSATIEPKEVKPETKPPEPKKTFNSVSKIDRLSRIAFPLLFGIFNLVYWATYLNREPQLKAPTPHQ
T3 sequence (P47870 1-512): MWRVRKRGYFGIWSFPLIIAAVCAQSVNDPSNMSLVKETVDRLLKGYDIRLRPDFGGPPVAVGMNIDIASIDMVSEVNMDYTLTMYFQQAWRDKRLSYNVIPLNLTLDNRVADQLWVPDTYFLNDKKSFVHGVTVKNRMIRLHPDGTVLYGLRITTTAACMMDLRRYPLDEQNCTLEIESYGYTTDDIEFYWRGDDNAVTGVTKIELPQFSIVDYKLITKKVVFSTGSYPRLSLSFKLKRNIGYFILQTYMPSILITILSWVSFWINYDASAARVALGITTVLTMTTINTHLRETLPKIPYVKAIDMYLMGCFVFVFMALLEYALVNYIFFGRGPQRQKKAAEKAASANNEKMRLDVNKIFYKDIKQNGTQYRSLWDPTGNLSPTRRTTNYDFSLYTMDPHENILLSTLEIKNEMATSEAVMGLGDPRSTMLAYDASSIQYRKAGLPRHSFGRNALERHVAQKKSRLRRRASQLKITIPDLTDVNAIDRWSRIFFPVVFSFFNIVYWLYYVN
Procedure: as §1, §2, §3, §4

[1] = molecular target: [35S]-TBPS binding, rat brain cortical membranes (GABA receptor complex); experiment: Steroid inhibition of [35S]-TBPS binding; settings: 3 nM [35S]-TBPS, 5 μM GABA
Procedure: Steroid Inhibition of TBPS Binding
[35S]-t-Butylbicyclophosphorothionate (TBPS) binding assays using rat brain cortical membranes in the presence of 5 μM GABA has been described (Gee et al, J. Pharmacol. Exp. Ther. 1987, 241, 346-353; Hawkinson et al, Mol. Pharmacol. 1994, 46, 977-985; Lewin, A. H et al., Mol. Pharmacol. 1989, 35, 189-194).
Briefly, cortices are rapidly removed following decapitation of carbon dioxide-anesthetized Sprague-Dawley rats (200-250 g). The cortices are homogenized in 10 volumes of ice-cold 0.32 M sucrose using a glass/teflon homogenizer and centrifuged at 1500×g for 10 min at 4° C. The resultant supernatants are centrifuged at 10,000×g for 20 min at 4° C. to obtain the P2 pellets. The P2 pellets are resuspended in 200 mM NaCl/50 mM Na-K phosphate pH 7.4 buffer and centrifuged at 10,000×g for 10 min at 4° C. This washing procedure is repeated twice and the pellets are resuspended in 10 volumes of buffer. Aliquots (100 μL) of the membrane suspensions are incubated with 3 nM [^35S]-TBPS and 5 μL aliquots of test drug dissolved in dimethyl sulfoxide (DMSO) (final 0.5%) in the presence of 5 μM GABA. The incubation is brought to a final volume of 1.0 mL with buffer. Nonspecific binding is determined in the presence of 2 μM unlabeled TBPS and ranged from 15 to 25%. Following a 90 min incubation at room temp, the assays are terminated by filtration through glass fiber filters (Schleicher and Schuell No. 32) using a cell harvester (Brandel) and rinsed three times with ice-cold buffer. Filter bound radioactivity is measured by liquid scintillation spectrometry. Non-linear curve fitting of the overall data for each drug averaged for each concentration is done using Prism (GraphPad). […] The concentration of test compound producing 50% inhibition (IC50) of specific binding and the maximal extent of inhibition (Imax) are determined for the individual experiments with the same model used for the overall data and then the means±SEM.s of the individual experiments are calculated.
Various compounds are or can be screened to determine their potential as modulators of [^35S]-TBPS binding in vitro. These assays are or can be performed in accordance with the above discussed procedures.

T2 sequence (P18507 40-475 partner, one chain of several): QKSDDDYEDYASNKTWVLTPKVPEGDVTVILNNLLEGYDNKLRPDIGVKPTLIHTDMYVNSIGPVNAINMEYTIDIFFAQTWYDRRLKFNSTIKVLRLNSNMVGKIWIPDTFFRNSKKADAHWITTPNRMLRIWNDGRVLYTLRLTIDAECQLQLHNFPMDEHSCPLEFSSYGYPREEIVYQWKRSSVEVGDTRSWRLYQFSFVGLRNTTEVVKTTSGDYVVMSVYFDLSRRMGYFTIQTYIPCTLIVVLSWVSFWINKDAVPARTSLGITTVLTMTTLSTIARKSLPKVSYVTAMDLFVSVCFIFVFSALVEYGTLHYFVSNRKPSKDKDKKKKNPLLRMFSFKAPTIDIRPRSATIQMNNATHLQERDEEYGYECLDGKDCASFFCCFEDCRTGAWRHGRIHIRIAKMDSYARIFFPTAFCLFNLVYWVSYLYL
T1 sequence (P48169 36-554): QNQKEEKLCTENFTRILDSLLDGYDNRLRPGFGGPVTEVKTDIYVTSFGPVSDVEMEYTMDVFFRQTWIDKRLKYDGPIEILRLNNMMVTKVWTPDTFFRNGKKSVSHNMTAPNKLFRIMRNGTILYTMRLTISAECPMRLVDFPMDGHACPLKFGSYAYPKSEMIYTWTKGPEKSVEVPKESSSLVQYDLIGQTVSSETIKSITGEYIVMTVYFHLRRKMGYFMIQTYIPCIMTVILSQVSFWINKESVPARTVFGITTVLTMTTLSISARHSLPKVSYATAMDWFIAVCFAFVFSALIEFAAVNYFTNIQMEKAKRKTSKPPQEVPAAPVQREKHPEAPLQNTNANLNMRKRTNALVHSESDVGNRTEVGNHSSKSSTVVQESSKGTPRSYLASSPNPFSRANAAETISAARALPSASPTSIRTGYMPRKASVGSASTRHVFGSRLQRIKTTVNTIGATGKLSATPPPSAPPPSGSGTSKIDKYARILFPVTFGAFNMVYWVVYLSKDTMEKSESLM
T1 sequence (P28472 26-473): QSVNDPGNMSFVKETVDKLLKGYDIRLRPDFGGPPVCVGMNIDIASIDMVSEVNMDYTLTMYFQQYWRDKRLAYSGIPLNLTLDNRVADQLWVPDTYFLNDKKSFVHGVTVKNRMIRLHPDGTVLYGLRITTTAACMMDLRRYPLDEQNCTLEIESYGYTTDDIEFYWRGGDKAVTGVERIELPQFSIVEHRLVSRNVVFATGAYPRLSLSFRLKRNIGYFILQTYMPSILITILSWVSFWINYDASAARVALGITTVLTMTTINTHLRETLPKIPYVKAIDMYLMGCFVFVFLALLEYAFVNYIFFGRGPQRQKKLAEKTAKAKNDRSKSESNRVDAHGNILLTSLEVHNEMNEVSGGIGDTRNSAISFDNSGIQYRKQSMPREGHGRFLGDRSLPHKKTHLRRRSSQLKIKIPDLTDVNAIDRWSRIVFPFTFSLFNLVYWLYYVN
T1 sequence (O14764 25-452 partner): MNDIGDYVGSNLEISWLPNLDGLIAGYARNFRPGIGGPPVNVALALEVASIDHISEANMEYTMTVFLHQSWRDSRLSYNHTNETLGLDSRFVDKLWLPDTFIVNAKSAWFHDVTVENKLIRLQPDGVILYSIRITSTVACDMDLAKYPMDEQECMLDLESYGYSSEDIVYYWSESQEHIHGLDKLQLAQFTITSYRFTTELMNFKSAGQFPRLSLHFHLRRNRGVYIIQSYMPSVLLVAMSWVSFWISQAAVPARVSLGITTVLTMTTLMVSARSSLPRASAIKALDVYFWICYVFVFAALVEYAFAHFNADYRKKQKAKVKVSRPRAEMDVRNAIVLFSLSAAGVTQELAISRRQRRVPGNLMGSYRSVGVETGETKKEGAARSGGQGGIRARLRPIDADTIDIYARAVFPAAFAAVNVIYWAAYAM

Row | SMILES | Emax at 10 µM (GABAA receptor α4β3δ) | Anticonvulsive Effect Dose (minimal effective anticonvulsant dose) (PTZ-treated mice) | Emax at 10 µM (GABAA receptor α1β2γ2) | Duration of Rat LRR (male Sprague Dawley rats) | Emax (GABAA-R) | EC50 (GABAA-R) | IC50 [1]
1 | C[C@@]1(O)CC[C@H]2[C@H](CC[C@@H]3[C@@H]2CC[C@]2(C)[C@@H](C(=O)Cn4ccc(C#N)n4)CC[C@@H]32)C1 [SA-22] | 100 to 500% | A (PO) (<3 mpk) | > 500% | B (15-60 min) | – | – | –
2 | C[C@@]1(O)CC[C@H]2[C@H](CC[C@@H]3[C@@H]2CC[C@]2(C)[C@@H](C(=O)Cn4cc(S(C)(=O)=O)cn4)CC[C@@H]32)C1 [SA-17] | 100 to 500% | A (PO) (<3 mpk) | 100 to 500% | – | – | – | –
3 | C[C@@]1(O)CC[C@H]2[C@H](CC[C@@H]3[C@@H]2CC[C@]2(C)[C@@H](C(=O)Cn4cc(Cl)cn4)CC[C@@H]32)C1 [SA-7] | > 500% | – | > 500% | – | 0 to 500% | 1 to 2 µM | 0.01 to 0.05 µM
4 | C[C@@]1(O)CC[C@H]2[C@H](CC[C@@H]3[C@@H]2CC[C@]2(C)[C@@H](C(=O)Cn4cc(Br)cn4)CC[C@@H]32)C1 [SA-9] | > 500% | – | 100 to 500% | – | 0 to 500% | 0.1 to 0.5 µM | 0.01 to 0.05 µM
5 | C[C@@]1(O)CC[C@H]2[C@@H](CC[C@@H]3[C@@H]2CC[C@]2(C)[C@@H](C(=O)Cn4cccn4)CC[C@@H]32)C1 [SB-1] | 100 to 500% | – | 100 to 500% | – | – | – | 0.1 to 0.5 µM

Reference: US12201640B2, “19-nor C3,3-disubstituted C21-n-pyrazolyl steroids and methods of use thereof” (Sage Therapeutics, Inc., priority 2013, dated 2025)
